pIC50: −log10 of the molar value.
Target: T1, integrin α4β7, expressed on the RPMI 8866 (human B lymphoid cell line) cell membrane with MAdCAM-1 (Homo sapiens, UniProt P13612+P26010)
T1 construct: integrin α4β7, expressed on the RPMI 8866 (human B lymphoid cell line) cell membrane; endogenous in cells; host or cells: RPMI 8866 cells (integrin). zzMAdCAM-1 was made in house in baculovirus-infected Spodoptera frugiperda cells
T1 sequence (P13612 34-1032): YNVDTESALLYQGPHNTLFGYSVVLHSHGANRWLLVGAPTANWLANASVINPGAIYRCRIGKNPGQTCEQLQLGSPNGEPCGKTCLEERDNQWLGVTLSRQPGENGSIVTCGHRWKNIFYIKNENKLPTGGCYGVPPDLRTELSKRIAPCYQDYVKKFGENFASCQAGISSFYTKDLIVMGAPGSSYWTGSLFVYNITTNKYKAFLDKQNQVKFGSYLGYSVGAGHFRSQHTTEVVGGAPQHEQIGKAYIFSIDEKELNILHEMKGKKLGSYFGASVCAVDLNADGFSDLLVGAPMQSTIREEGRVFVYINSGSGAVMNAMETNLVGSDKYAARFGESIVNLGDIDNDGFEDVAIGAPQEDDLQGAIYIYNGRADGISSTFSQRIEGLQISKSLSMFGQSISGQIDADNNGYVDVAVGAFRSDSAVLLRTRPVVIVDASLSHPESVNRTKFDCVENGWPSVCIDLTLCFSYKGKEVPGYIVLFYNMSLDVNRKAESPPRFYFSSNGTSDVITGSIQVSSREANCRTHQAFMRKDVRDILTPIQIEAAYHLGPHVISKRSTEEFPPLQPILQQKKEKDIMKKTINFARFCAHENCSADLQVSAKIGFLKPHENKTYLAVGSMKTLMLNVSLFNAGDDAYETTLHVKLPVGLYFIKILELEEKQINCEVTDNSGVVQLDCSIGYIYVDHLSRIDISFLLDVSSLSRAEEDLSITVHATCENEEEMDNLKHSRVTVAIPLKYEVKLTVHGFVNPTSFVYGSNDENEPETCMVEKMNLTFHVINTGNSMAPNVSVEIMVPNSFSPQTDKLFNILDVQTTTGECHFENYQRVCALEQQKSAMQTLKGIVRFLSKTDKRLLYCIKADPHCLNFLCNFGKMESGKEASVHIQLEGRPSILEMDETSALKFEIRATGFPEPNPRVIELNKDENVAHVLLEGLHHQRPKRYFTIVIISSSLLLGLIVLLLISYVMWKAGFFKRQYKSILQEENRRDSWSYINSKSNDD
T1 sequence (P26010 20-798): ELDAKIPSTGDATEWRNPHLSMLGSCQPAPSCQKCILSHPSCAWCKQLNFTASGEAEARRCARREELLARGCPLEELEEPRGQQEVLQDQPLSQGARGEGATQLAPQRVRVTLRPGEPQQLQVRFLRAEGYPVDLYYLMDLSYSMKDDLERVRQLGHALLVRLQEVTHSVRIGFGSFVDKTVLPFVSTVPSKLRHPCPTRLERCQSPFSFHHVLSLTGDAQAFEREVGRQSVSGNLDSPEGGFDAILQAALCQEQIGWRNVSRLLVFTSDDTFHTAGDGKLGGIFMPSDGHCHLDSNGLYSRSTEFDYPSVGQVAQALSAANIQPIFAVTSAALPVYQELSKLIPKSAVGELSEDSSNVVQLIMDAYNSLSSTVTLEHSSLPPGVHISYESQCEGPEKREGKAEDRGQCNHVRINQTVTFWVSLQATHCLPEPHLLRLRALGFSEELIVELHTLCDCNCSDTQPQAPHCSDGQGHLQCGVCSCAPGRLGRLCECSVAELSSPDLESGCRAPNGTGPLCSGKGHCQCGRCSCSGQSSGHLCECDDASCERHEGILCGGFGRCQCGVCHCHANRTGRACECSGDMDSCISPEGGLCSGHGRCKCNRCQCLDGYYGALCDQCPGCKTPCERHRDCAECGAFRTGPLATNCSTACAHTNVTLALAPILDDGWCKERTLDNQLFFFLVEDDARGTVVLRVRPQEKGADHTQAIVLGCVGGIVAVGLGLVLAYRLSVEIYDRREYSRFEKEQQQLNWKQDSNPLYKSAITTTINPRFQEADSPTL
Test: RPMI 8866/MAdCAM-1 adhesion assay
Assay type: cell-based
Conditions: RPMI 8866 cell adhesion to MAdCAM-1, 1 mM MnCl2; mean of n experiments
Method: (4) RPMI 8866/MAdCAM-1 Adhesion Assay
This assay was used to investigate the interaction of the integrin α4β7, expressed on the RPMI 8866 (human B lymphoid cell line) cell membrane with MAdCAM-1. Polystyrene 96-well microtitre plates were coated with human immunoglobulin G (IgG; Sigma Chemicals, UK, Product No. 14506) at a concentration of 0.05 mg ml^−1 in bicarbonate buffer (36 mM NaHCO3 and 22 mM Na2CO3, prepared in Dulbecco's phosphate buffered saline at pH 9.8 (PBS); Sigma Chemicals, UK, Product No. 14190-094) for 2 hours at 37° C. This solution was then aspirated and the plates were washed twice with PBS.
MAdCAM-1 was prepared by cloning its constituent domains, under the control of a polyhedrin promoter, into a baculovirus expression system with a zz (Protein A) tag. The amplified baculovirus containing zzMAdCAM-1 was used to infect Spodoptera frugiperda cells growing in suspension in SF900II medium supplemented with 5% foetal calf serum. The cells were infected at a multiplicity of infection of 1 and harvested 48 hours later by centrifugation. Protease inhibitors were added and the culture supernatant was clarified either by filtration through a 0.2 μm filter or by centrifugation. The zzMAdCAM-1 was then purified from this clarified medium using an IgG agarose column, equilibrated with either 20 mM sodium phosphate pH 7.2 alone or in the presence of 0.5M sodium chloride. Elution of zzMAdCAM-1 from the column was mediated using 3M ammonium thiocyanate. The sample was then dialysed thoroughly, using 20 mM sodium phosphate pH 7.2, to remove the ammonium thiocyanate. The purified zzMAdCAM-1 was then concentrated to a small volume (Amicon stirred cell concentrators) until a concentration of 0.5 mg ml^−1 was obtained, calculated using the extinction coefficient value.
This solution of zzMAdCAM-1 was diluted 1:2500 and then incubated overnight at 4° C. in the IgG coated microtitre plates with 3% bovine serum albumin (BSA) in PBS, followed by aspiration and two further washes with PBS. A concentration of the RPMI 8866 cells (3×10^6 cells ml^−1), grown in cell media RPMI 1640 (HyClone Ltd, Product No. B-9106-L) supplemented with 10% heat inactivated foetal calf serum (FCS; Gibco BRL, Product No. 10099-075) and 2 mM L-glutamine, were labelled with 10 μM of the fluorescent dye, 2′, 7′-bis(2-carboxyethyl)-5-(e6)-carboxyfluorescein acetoxymethyl ester (BCECF-AM; Molecular Probes Inc. Product No. B-1150) at 37° C. for 10 minutes. The excess dye was then removed by centrifugation at 500×g for 5 minutes and the cells were resuspended at a concentration of 6×10^6 cells ml^−1 in Hank's balanced salt solution (HBSS; Gibco BRL, Product No. 1419D-094).
Equal volumes of compounds (dissolved in an appropriate solvent and diluted in HBSS containing 1 mM MnCl2) and the labelled RPMI 8866 cells, were added to the MAdCAM-1 coated plates and adhesion was allowed to proceed for 30 minutes at 37° C. Non, or loosely adhered cells, were removed by inversion of the plate and blotted with tissue paper. Two washes with PBS and further blotting were then performed, before the addition of 2% detergent (Triton-X®; Sigma Chemicals UK, Product No. X100). Counting was undertaken in a Wallac Victor™ Fluorimeter, where low fluorescence values were indicative of compounds which had inhibited adhesion. All samples were assayed in singlicate and the following four parameter curve fit, shown by Equation (I) (above) was applied. Wherein the maximum and minimum values are those compared to adhesion in the absence of compound and in the presence of the dipotassium salt of 2 mM EDTA; Sigma Chemicals, UK, Product No. ED2P). Data is presented as the mean pIC50 with the standard error of the mean of n experiments.

CC(=O)N1CCN(C(=O)Oc2ccc(C[C@H](NC(=O)[C@H](CC(C)C)NC(=O)COc3ccccc3C(C)(C)C)C(=O)O)cc2)CC1 [Example 16, (2S)-3-(4-{[(4-Acetyl-1-piperazinyl)carbonyl]oxy}phenyl)-2-{[(2S)-2-({2-[2-(tert-butyl)phenoxy]acetyl}amino)-4-methylpentanoyl]amino}propanoic acid]
pIC50: 6.80

CC(=O)N1CCN(C(=O)Oc2ccc(C[C@H](NC(=O)[C@H](CC(C)C)NC(=O)COc3ccccc3C)C(=O)O)cc2)CC1 [Example 17, (2S)-3-(4-{[(4-Acetyl-1-piperazinyl)carbonyl]oxy}phenyl)-2-[((2S)-4-methyl-2-{[2-(2-methylphenoxy)acetyl]amino}pentanoyl)amino]propanoic acid]
pIC50: 6.80

CC(C)C[C@H](NC(=O)COc1ccccc1C(C)(C)C)C(=O)N[C@@H](Cc1ccc(OC(=O)N2CCN(C(=O)c3ccccc3)CC2)cc1)C(=O)O [Example 20, (2S)-3-(4-{[(4-Benzoyl-1-piperazinyl)carbonyl]oxy}phenyl)-2-{[(2S)-2-({2-[2-(tert-butyl)phenoxy]acetyl}amino)-4-methylpentanoyl]amino}propanoic acid]
pIC50: 6.70

Cc1ccccc1OCC(=O)N[C@@H](CC(C)C)C(=O)N[C@@H](Cc1ccc(OC(=O)N2CCN(C(=O)c3ccccc3)CC2)cc1)C(=O)O [Example 21, (2S)-3-(4-{[(4-Benzoyl-1-piperazinyl)carbonyl]oxy}phenyl)-2-[((2S)-4-methyl-2-{[2-(2-methylphenoxy)acetyl]amino}pentanoyl)amino]propanoic acid]
pIC50: 6.70

CC(C)C[C@H](NC(=O)COc1ccccc1I)C(=O)N[C@@H](Cc1ccc(OC(=O)N2CCOCC2)cc1)C(=O)O [Example 23, (2S)-2-[((2S)-2-{[2-(2-Iodophenoxy)acetyl]amino}-4-methylpentanoyl)amino]-3-{4-[(4-morpholinylcarbonyl)oxy]phenyl}propanoic acid]
pIC50: 7.20

CC(C)C[C@H](NC(=O)COc1ccccc1C(C)(C)C)C(=O)N[C@@H](Cc1ccc(OC(=O)N2CCOCC2)cc1)C(=O)O [Example 24, (2S)-2-{[(2S)-2-({2-[2-(Tert-butyl)phenoxy]acetyl}amino)-4-methylpentanoyl]amino}-3-{4-[(4-morpholinylcarbonyl)oxy]phenyl}propanoic acid]
pIC50: 6.60

Cc1ccccc1OCC(=O)N[C@@H](CC(C)C)C(=O)N[C@@H](Cc1ccc(OC(=O)N2CCC(C(N)=O)CC2)cc1)C(=O)O [Example 27, (2S)-3-[4-({[4-(Aminocarbonyl)-1-piperidinyl]carbonyl}oxy)phenyl]-2-[((2S)-4-methyl-2-{[2-(2-methylphenoxy)acetyl]amino}pentanoyl)amino]propanoic acid]
pIC50: 7.50

CC(C)C[C@H](NC(=O)c1cccc2c1oc1ccccc12)C(=O)N[C@@H](Cc1ccc(OC(=O)N2CCC(C(N)=O)CC2)cc1)C(=O)O [Example 28, (2S)-3-[4-({[4-(Aminocarbonyl)-1-piperidinyl]carbonyl}oxy)phenyl]-2-({(2S)-2-[(dibenzo[b,d]furan-4-ylcarbonyl)amino]-4-methylpentanoyl}amino)propanoic acid]
pIC50: 6.90

Source: US6867192B1, “Compounds useful in the treatment of inflammatory diseases” (priority 1998, dated 2005)
